Values after ≈ are worked out from the molar mass of the structure shown. Values belong to the molecule of their own block, whether it stands above or below them.
What was measured:
MV3 (human melanoma) = test: In vitro tumour cell growth inhibition (MTT), MV3; assay type: cell-based; conditions: Homo sapiens, 96 h, Table 1 experiment
Procedure: (§1) Temozolomide (white powder), temozolomide acid (white powder) and temozolomide-8-carboxylate hexyl (white scale crystal) were made in house. For the estimation of in vitro tumour cell growth inhibition, MV3 (human melanoma), M14 (human melanoma), B16 and B16-BL6 (mouse melanoma), SHG-44, TJ899 and TJ905 (human glioma), MCF-7 (human breast), HCT-8 (human colon), A549 (human non small lung), Bel7402 (human hepatocellulor), and BGC-823 (human stomach) were used. All tumour cells were cultured in RPMI-1640 medium supplemented with 10% fetal bovine serum (FBS) at 37° C. in a humidified 5% CO2 incubator.
(§2) After being harvested from culture flasks, a cell suspension of 1×10^4/ml was made by using 1640 RPMI medium supplemented with 10% fetal bovine serum. 100 μl (contains 1000 tumour cells) of the cell suspension was seeded per well of 96-well flat-bottom Costar culture plates at 37° C. in a humidified 5% CO2 incubator for 24 hrs before introducing drugs. Each tested compounds was made for five different concentrations and 100 μl of the each concentration was introduced into parallel three wells; control wells were added with 100 μl of plain medium alone; fluorouracil (a chemotherapeutic antitumour drug) was used as the positive control. Cells were then incubated for 96 h. Proliferative response and cell death were determined using MTT (3-(4,5-dimethylthiazolyl)-2,5-diphenyl-tetrazolium bromide) assay.
(§3) MTT assay: Following incubation of cells with the tested compounds for 96 h, 100 μl of 0.4 mg/ml MTT in RPMI 1640 was added to each well and the plate was incubated at 37° C. for 4 h. The plate was then centrifuged and followed by removal of medium. 150 μl of DMSO was then added to dissolve formazan crystal. DMSO-added plates were placed on a plate shaker for 5 min and absorbance was measured spectrophotometrically at 540 nm (with reference wavelength at 450 nm) using a Benchmark microtiter plate reader (Bio-Rad 550, Bio-Rad Laboratories, CA, U.S.A.).
The IC50 was calculated from the curve of the tested compound concentrations against the inhibition rate of the tumour cells. Table 1 summarized the experiment results by using six human cancer cell lines, HCT-8 (colon carcinoma), A549 (non small lung carcinoma), MCF-7 (breast), Bel7402 (hepatocellulor carcinoma), BGC-823 (stomach adenocarcinoma), and MV3 (melanoma). Table 2 summarized the results from the experiment results by using two human melanoma cell lines, MV3 and M14, two mouse melanoma cell lines, B16 and B16-BL6, and three human glioma cell lines, TJ899, SHG-44 and TJ905.

MCF-7 (human breast) = test: In vitro tumour cell growth inhibition (MTT), MCF-7; assay type: cell-based; conditions: MCF7, Table 1 experiment, 96 h
Procedure: as §1, §2, §3
(§4) The IC50 was calculated from the curve of the tested compound concentrations against the inhibition rate of the tumour cells. […]

[1] = test system: Bel7402 (human hepatocellulor); test: In vitro tumour cell growth inhibition (MTT), Bel-7402; assay type: cell-based; conditions: Table 1 experiment, 96 h
Procedure: as §1, §2, §3, §4

[2] = test system: A549 (human non small lung); test: In vitro tumour cell growth inhibition (MTT), A549; assay type: cell-based; conditions: Table 1 experiment, 96 h
Procedure: as §1, §2, §3, §4

HCT-8 (human colon) = test: In vitro tumour cell growth inhibition (MTT), HCT-8; assay type: cell-based; conditions: Table 1 experiment, 96 h
Procedure: as §1, §2, §3, §4

BGC-823 (human stomach) = test: In vitro tumour cell growth inhibition (MTT), BGC-823; assay type: cell-based; conditions: Table 1 experiment, 96 h
Procedure: as §1, §2, §3, §4

[3] = Solubility in 10% v/v propylene glycol; assay type: physicochemical; conditions: 10% v/v propylene glycol aqueous solution, aqueous with cosolvent or surfactant or cyclodextrin, thermodynamic from solid, ambient conditions, stirred 5 hours, read-out: Solubility, Concentration
Procedure: The potential of temozolomide esters used as topical and transdermal prodrugs is first proven through studies of their solubility. That is a decreased trend of solubility in an aqueous solution with increase of the length of the ester hydrocarbon alkyl chain of the temozolomide esters. It is clear the solubility constantly decreases from the methyl ester to the octyl ester, while temozolomide itself is 3.0 mg/ml similar to that of the methyl ester. […] Similarly to the esters, the solubility of the temozolomide amide products in the aqueous solution is considerably lower than that of temozolomide.
The solubility of temozolomide and the temozolomide esters was determined in 10% v/v propylene glycol by stirring an excess of the solid products at room temperature for 5 hours. The mixtures were then filtered, diluted with sample solvent and analysed using HPLC.

[4] = In vitro permeation, Franz diffusion cell, silicone membrane; assay type: in vitro ADME; conditions: 37° C., 8 h
From the text: Jacketed Franz-type diffusion cells were used throughout the study and the barrier (12) (skin or silicone membrane) was mounted between the two chambers (14, 16) (2.8–3.4 cm^2 available surface area) with the dermal side in contact with the receiver solution (FIG. 2). The diffusion chambers (10) comprised a barrier of skin or silicone membrane (12) mounted between two chambers (14, 16). A cap (18) formed the donor compartment (14). The second receptor compartment (16) contained a receptor cell (20) with a stirring bar (22), sampling port (24) and cover (26). The stirring bar (22) was stirred by means of a magnet plate (28) having a rotating magnet. The receptor compartment comprised a water jacket (30) having a water inlet (32) and a water outlet (34).
Three types of materials were used in permeation studies. • 1. Silicone membrane (Silastic Medical Grade, 500-5, Dow Corning 0.005 in thick) was cut into circular sections (2 cm diameter) and washed with double distilled water prior to use. • 2. Full-thickness rat skin was obtained from Male Wistar rats aged 10 to 12 weeks and weighing 250 to 300 g, which were sacrificed by cervical dislocation, the abdomen shaved and the intact skin removed by dissection. Following removal of fat tissue, the skin was cut into circular pieces and used immediately. • 3. Samples of adult human epidermis were purchased from the Stephen Kirby Skin Bank (UK). The samples were from the leg, were stored at −18° C. and used within one week. Experiments
The membrane (as detailed above) was mounted on the diffusion cell (10), on which the surface area available for diffusion of each cell was about 2.8–3.4 cm^2. The cell cap (18) was placed on the membrane (12), and it was sealed with Parafilm® connecting the cell cap, membrane, and receptor cell. The capacity of each receptor cell was around 25–26 ml, which was filled with receptor solution and was completely in contact with the membrane sheet. During the course of experiment, the solution was continuously stirred by teflon-coated magnetic bar (22) placed in the cell (20). The temperature was maintained at 37° C. by a thermostatic water pump that circulated the water through the jacket (30) surrounding the cell body. The system was allowed to equilibrate under these conditions for half an hour. Finally, the prepared sample solution (2 ml) was added into the donor cap cell, and it was sealed with Parafilm® to minimize the evaporation of donor solution. 1 ml of receptor solution was removed every 30 minutes for 5 hours and then every 60 minutes for a further 3 hours. The volumes withdrawn were always replaced with equal volumes of fresh receptor solution to maintain constant volume. The concentration of each sample solution was determined by using HPLC.
For every sample, six determinations were performed on human and rat skin, and three determinations were carried out through artificial silicone membrane.
As stated above, after the removal of receptor solution, the receiver compartment was refilled with an identical volume of receptor fluid. This causes of the dilution of receptor solution leading to an under determination of the sample concentration. As a consequence, it was necessary to mathematically correct each successive sample concentrations, in the present invention, which was determined by applying the following equation:
[formula] where Ct is the actual current concentration of drug in the receptor phase at time t, Cmt is the apparent (i.e. measured) current concentration of drug in the receptor phase, Vs is the sample volume withdrawn for analysis, Vr is the volume of receptor solution, and ΣCm is the summed total of the previous measured concentrations.
Finally, the amount of drug penetrating the skin per unit area was calculated by dividing the obtained concentrations by the surface area available for diffusion cell and this value was different for each individual cell. […]

pig liver esterase = test: Enzymatic metabolizing study with pig liver esterase (1H NMR); assay type: in vitro ADME; conditions: 37° C., pH 7.4 buffer; ester complete at 10 minutes; amide followed up to 8 hours
Procedure: First the present invention establishes the metabolised process of the temozolomide esters by pig liver esterase in vitro. ^1H NMR spectra 1 (FIG. 1) records the degradation profile of the temozolomide methyl ester under incubation condition (Rathbone D L, 1999). […] Finally, at 10 minutes, the intensity of the singlet at 3.58 ppm grows to the grade similar to the original of the two singlets at 3.63 and 3.65 ppm, which while are completely eliminated. […] This discovery establishes the solid foundation for the temozolomide esters to be considered as the potential anticancer pro-drugs.
Enzymatic metabolizing studies of the temozolomide methyl ester was carried out using pig liver esterase enzyme from Sigma [a suspension in 3.2 M ammonium sulphate solution pH 8; 200 unit/mg protein (14 mg protein/ml)]. • A. To a NMR tube 2 mg of the temozolomide methyl ester was added, followed by 0.2 ml of d6-DMSO, 0.5 ml D2O of pH 7.4 sulphate buffer and finally 50 μl of the enzyme solution. Record a ^1H NMR spectrum immediately, then the mixture was incubated at 37° C. and record a ^1H NMR spectrum at each 5 minutes time interval. […] The samples were dissolved in d6-DMSO in an NMR tube, 50 μl of enzyme solution was added and the solution incubated at 37° C.

Compound: O=c1[nH]cc(F)c(=O)[nH]1 [Fluorouracil, fluorouracil, reference compound]
IC50 (MV3 (human melanoma)): 0.427 µg/mL (≈ 3.28 µM) | IC50 (MCF-7 (human breast)): 0.629 µg/mL (≈ 4.84 µM) | IC50 [1]: 0.495 µg/mL (≈ 3.81 µM) | IC50 [2]: 0.126 µg/mL (≈ 0.969 µM) | IC50 (HCT-8 (human colon)): 0.606 µg/mL (≈ 4.66 µM) | IC50 (BGC-823 (human stomach)): 0.722 µg/mL (≈ 5.55 µM)

Compound: CCOC(=O)c1ncn2c(=O)n(C)nnc12 [Temozolomide ethyl ester, Ethyl 3,4-dihydro-3-methyl-4-oxoimidazo[5,1-d]-1,2,3,5-tetrazine-8-carboxylate]
solubility at 5 h [3]: 2500 µg/mL (≈ 11200 µM) | Permeation through synthetic silicone membrane ([4]; FIGS. 3-5): can not pass through the synthetic membrane easily

Compound: CC(C)NC(=O)c1ncn2c(=O)n(C)nnc12 [Temozolomide isopropyl amide, 3-Methyl-N-(iso-propyl)-4-oxoimidazo[5,1-d]-1,2,3,5-tetrazine-8-carboxamide]
solubility at 5 h [3]: 2800 µg/mL (≈ 11900 µM)

Second part, led by results:

solubility at 5 h [3]: 1400 µg/mL (≈ 5590 µM)
Compound: Cn1nnc2c(C(=O)NC(C)(C)C)ncn2c1=O [Temozolomide t-butyl amide, 3-Methyl-N-(tert-butyl)-4-oxoimidazo[5,1-d]-1,2,3,5-tetrazine-8-carboxamide]

solubility at 5 h [3]: 300 µg/mL (≈ 976 µM) | Permeation through synthetic silicone membrane ([4]; FIGS. 3-5, listed as octyl ester): significantly less than the hexyl ester
Compound: CCCCCCCCOC(=O)c1ncn2c(=O)n(C)nnc12 [Temozolomide n-octyl ester, n-Octyl 3,4-dihydro-3-methyl-4-oxoimidazo[5,1-d]-1,2,3,5-tetrazine-8-carboxylate]
Permeation through synthetic silicone membrane ([4]; FIGS. 3-5, listed as n-octyl ester): passed through the membrane far more efficiently

solubility at 5 h [3]: 3000 µg/mL (≈ 14300 µM)
Compound: COC(=O)c1ncn2c(=O)n(C)nnc12 [Temozolomide methyl ester, Methyl 3,4-dihydro-3-methyl-4-oxoimidazo[5,1-d]-1,2,3,5-tetrazine-8-carboxylate]
Degradation to temozolomide acid by pig liver esterase (pig liver esterase): completely degraded and released temozolomide acid | Permeation through synthetic silicone membrane ([4]; FIGS. 3-5): can not pass through the synthetic membrane easily
